Assay results published in patent US5280125A, “Chemical process for the preparation of 3-alkylated indole” (Imperial Chemical Industries PLC, priority 1990, dated 1994).

Assays:
[1] = system: leukotriene LTD4; assay: guinea-pig aerosol test (LTD4 aerosol challenge, onset of dyspnea); type: in vivo
Protocol: According to this procedure, guinea-pigs are pre-dosed with test compound as a solution in poly(ethylene glycol) (generally 1 hour) before an aerosol challenge of leukotriene LTD4 (starting with 2 ml of a 30 microgram/ml solution) and the effect of the test compound on the average time of leukotriene initiated change in breathing pattern (such as onset of dyspnea) recorded and compared with that in undosed, control guinea-pigs. Percent protection engendered by a test compound was calculated from the time delay to the onset of dyspnea compared to that for control animals.

[2] = system: LTC4, LTD4 and/or LTE4; assay: in vitro leukotriene antagonist tests (guinea-pig tracheal strip preparation or receptor-ligand binding assay); conditions: in one of the above in vitro tests

concentration showing statistically significant activity as LTC4, LTD4 and/or LTE4 antagonist [2] | Structure (SMILES) | ED50 ([1]; Cavia porcellus, 1 h, oral administration, protection against LTD4 aerosol-induced dyspnea) [µmol/kg] | untoward side-effects ([1]; oral, at several multiples of the minimum effective dose)
 | COc1cc(C(=O)NS(=O)(=O)c2ccccc2C)ccc1Cc1cn(C)c2ccc(C(=O)NC[C@H](C)CC(F)(F)F)cc12 [compound of formula I substantially in the form of the (R)-enantiomer, (R)-4-[5-(N-[4,4,4-trifluoro-2-methylbutyl]carbamoyl)-1-methylindol-3-yl-methyl]-3-methoxy-N-o-tolylsulphonylbenzamide] | 1.1 | without any indication of untoward side-effects
≤ 10^-8 M | COc1cc(C(=O)NS(=O)(=O)c2ccccc2C)ccc1Cc1cn(C)c2ccc(C(=O)NCC(C)CC(F)(F)F)cc12 (stereo not drawn) [compound of formula I, 4-[5-(N-[4,4,4-trifluoro-2-methylbutyl]carbamoyl)-1-methylindol-3-ylmethyl]-3-methoxy-N-o-tolylsulphonylbenzamide] |  | 
